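Step 1: Grow cells in 96-well plates. Step 2: Expose to compound for 48 hours at 5 concentrations. Step 3: Interpolate endpoints linearly; if unreached, use highest concentration. TGI: total growth inhibition.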
How the values were obtained:
Test in all cases: inhibition of tumour cell growth, NCI panel, 48 h
[1] = test system: UO-31 renal
[2] = test system: SNB-19 CNS
[3] = test system: KM12 colon
[4] = test system: CCRF-CEM leukemia
[5] = test system: RPMI-8226 leukemia
[6] = test system: HCC-2998 colon
[7] = test system: SW-620 colon
[8] = test system: IGROV1 ovarian
[9] = test system: CAKI-1 renal

SMILES	TGI [1] [µM]	TGI [2] [µM]	TGI [3] [µM]	TGI [4] [µM]	TGI [5] [µM]	TGI [6] [µM]	TGI [7] [µM]	TGI [8] [µM]	TGI [9] [µM]
CC(C)N(C(=O)C12C3C4C5(C#N)C3C1(C#N)C5C42I)C(C)C (centres undefined)	> 100	> 100	> 100	> 59.7	> 66.6	> 100	> 66	> 100	> 100
CC(C)(C)CC(C)(C)c1cc2c(O)c(c1)Cc1cc(C(C)(C)CC(C)(C)C)cc(c1O)Cc1cc(C(C)(C)CC(C)(C)C)cc(c1O)Cc1cc(C(C)(C)CC(C)(C)C)cc(c1O)C2	> 100	> 100	> 100	> 100	> 100	> 100	> 100	> 100	–
CN(C)/C=N/c1nc2c(ncn2C2OC(CO)C(O)C2O)c(=O)[nH]1 (centres undefined)	> 100	> 100	> 100	–	> 100	> 100	> 100	> 100	> 100
CC1=NNC(=O)C2CCC(=O)N12 (centres undefined)	> 100	> 100	> 100	> 100	> 100	> 100	> 100	> 100	> 100
N#Cc1nc(Nc2cccc3ccccc23)sc1N	49	> 100	> 100	–	72	41.2	> 100	> 100	> 100
Cc1cc([N+](=O)[O-])ccc1Nc1cccc(Cl)c1C	24.4	42.9	31	47.2	–	32.6	62.7	27.6	30.5
COC(=O)c1cc2c(s1)C(=O)c1ccccc1-2	> 100	> 100	> 100	> 100	–	> 100	> 100	> 100	> 100
CCCN=C(N)NC#N	> 100	> 100	> 100	–	> 100	> 100	30.8	> 100	> 100
CC1(C)COC(c2cccnc2/C=N/O)=N1	> 100	> 100	> 100	> 100	–	–	> 100	> 100	> 100
N#CC(N)(C(=O)CCC(=O)Nc1cccc(Cl)c1)c1ccc(Cl)cc1 (centres undefined)	> 100	> 100	> 100	> 100	> 100	–	> 100	> 100	> 100
CN(C)c1nc2ccccc2[nH]1	> 100	–	> 100	> 100	> 100	> 100	> 100	> 100	> 100

Reference: PubChem BioAssay (NCI)
